Experiments:
[1] = system: tympanic membrane (TM) of rats with active bacterial OM; assay: Comparative TM transit of individual phage clones in vivo (plaque assay of ME fluid); design: species or system rat (male Sprague-Dawley), NTHi-induced OM; details: for phage particles in the ME after 1 hr incubation of the peptide-phage on the TM: 10^10 PFUs applied, mean of six animals; for TM-transit rate into the ME compared with WT phage and the other clones: phage clone displaying the peptide, 1 × 10^10 phage particles on one TM for 1 hr, six rats, plaque assay of ME fluid
Description: (§1) All animal experiments were performed in strict accordance to the Guide for the Care and Use of Laboratory Animals of the National Institutes of Health (NIH) and the policies of the Veterans Affairs San Diego Healthcare Systems, CA. Experiments were carried out in strict accordance with an approved Institutional Animal Care and Use Committee (IACUC) protocol. Male Sprague–Dawley rats were purchased from The Jackson Laboratory. The animals were anesthetized with an intraperitoneal injection of 1.0–1.5 ml per 200–300 g bodyweight of rodent cocktail (40 mg/Kg Ketamine, 10 mg/Kg Xylasine, and 0.75 mg/Kg Acepromazine). The skin of the neck was shaved and treated with Povidone antiseptic solution. OM was induced by infecting the ME with nontypeable Haemophilus influenzae (NTHi) in a laboratory setting by surgically exposing the bulla via a ventral approach through a vertical midline incision made in the neck. A 25-gauge needle was used to fenestrate the bulla and inject ~50 μL saline solution containing 10^4 CFU/mL NTHi bacteria strain 3655 (biotype II, originally isolated from the ME of a pediatric OM patient). Following the inoculation, the opening was closed and incision was stapled. The TMs were visually confirmed to be intact after surgery and the rats were given Lactated Ringer’s solution and buprenorphine subcutaneously postoperatively. For in vivo phage display experiments, rats were used at two days post NTHi inoculation. The ears were examined otoscopically at this time to confirm signs of active infection and the presence of fluid in the ME cavity.
After three or ten rounds of subtraction/selection in strategies 1 and 2 respectively, single blue plaques were selected at random for preparation of purified stocks and sequencing as recommended by the manufacturer (New England Biolabs, Cambridge, MA, USA). Phage transit efficiency was determined by incubating 1 × 10^10 PFUs (plaque-forming units) of specific phage over the TMs of rats in vivo for 1 hr. At least six animals per time point were used. Incubation, washings, and elution conditions were performed as above. The phage transiting efficiency was determined by comparing the number of plaque-forming phage recovered from the ME fluid (output) by the number of plaque-forming phage in the input (TM side).
We quantified the rate of TM transit into the ME for all peptides identified by Strategy 1 (Fig. 3A) and those from Strategy 2 (Fig. 3B) that appeared at a frequency of three or more in our sequenced sample (Tables 1 and 2). Individual phage clones were amplified and 1 × 10^10 phage particles were applied onto one TM of six anesthetized rats for 1 hr. The number of phage particles recovered from the ME was then compared to that observed for WT (untargeted) phage. […] On the other hand, the peptide sequence of BPT-4 was clearly distinct in the phylogeny analysis.

[2] = system: tympanic membrane (TM) of rats with OM; assay: Transport kinetics and saturation of TMT-3 phage in vivo; design: species or system rat (male Sprague-Dawley), NTHi-induced OM; details: for phage recovery from the ME: at least six animals per time point
Description: as §1
The phage peptide with one of the highest transport capacities measured above TMT-3 SADSTKTTHLTL, was selected for further transport specificity, kinetics and competitive binding assays. To evaluate the kinetics of transport of the TMT-3 single phage clone, a TMT-3 phage preparation was incubated on the TM over a 1, 2 or 4 hr time period at 1 × 10^10 PFU concentration. At least six animals per time point were used. Incubation, washing, and elution conditions were performed as above in rats with OM. The level of phage transport was evaluated by determining the titer (PFUs) of TMT-3 phage present in the ME fluid. To assess transport saturation, the recovery of TMT-3 phage from the ME was compared following application of 10^10 versus 10^12 phage particles to the TM for 1 hr. The corresponding free peptide SHSADSTKTTHLTLGGG was synthesized by Genscript (Piscataway, NJ, USA) in addition to an untargeted randomized control peptide SHDLSTSATLTHTKGGG (Genscript, Piscataway, NJ, USA) at purity >95%. All peptides were reconstituted in PBS pH, 7.2. For the competition assay TMT-3 phage application to the TM was performed at titer of 10^10 PFUs, as above. However, 1 μM of free peptide was included with the phage.

[3] = system: healthy (uninfected) tympanic membrane; assay: TMT-3 phage transport across TMs of uninfected MEs; assay type: in vivo, rat; details: n = 6, data not shown
Description: To establish the specificity of translocation, we assessed whether a synthetic TMT-3 peptide would interfere with internalization of corresponding peptide-bearing phage into the ME. […] In addition, TMT-3 phage was applied onto the TMs of uninfected MEs (n = 6). We observed that for healthy TMs, phage transport into the ME was quite limited when compared to the infected TM (data not shown). This could be attributed to limitations in efficient phage transport when fluid is not present on the other side of the TM. Alternatively, it is possible that the transit mechanism employed is only present in infected TMs.

[4] = system: TMs of ex vivo MEs from rats undergoing OM; assay: Ex vivo ME transport: dependence on time after death and temperature; design: species or system rat; details: for phage recovery through ex vivo TMs: warmed to 37 °C, 1 hr with phage
Description: In order to learn more about the pharmacokinetics mechanisms of transport, we tested the effect of varying metabolism or temperature on transport rates. […] MEs were removed intact from deeply anesthetized rats undergoing OM as described above. […] Translocation is also temperature dependent. […] It is well known that endocytosis is inhibited at 4 °C[36][37].

Sequence	phage particles in the ME after 1 hr incubation of the peptide-phage on the TM ([1]; 1 hr, rats with OM)	TM-transit rate into the ME compared with WT phage and the other clones [1]	other results
SADSTKTTHLTL [TMT-3, transport tests used the phage clone]	more than 2 × 10^3 phage particles	highest rates of transport	recovery from the ME among the six positive phage clones ([1]; 10^10 PFUs, 1 hr, rats with OM): greatest recovery from the ME; dependence of phage recovery on time on the TM ([2]; 1, 2 and 4 hrs of contact with the infected TM, 1 × 10^10 PFU): exponential increase; dependence of phage recovery on the amount applied (saturation) ([2]; 10^10 versus 10^12 phage particles applied to the TM for 1 hr): increased proportionally with concentration; phage recovery from the ME ([2]; 1 hr of contact with the infected TM, 1 × 10^10 PFU): approximately 10^4 phage particles; phage recovery from the ME ([2]; 4 hrs of contact with the infected TM, 1 × 10^10 PFU): ~10^6 phage particles; phage transport into the ME through healthy TMs compared to the infected TM [3]: quite limited; ME recovery of phage ex vivo ([4]; 4 °C, 1 hr exposure of the TM to 10^10 PFUs): severely compromised; phage recovery through ex vivo TMs ([4]; TMs stored 12 hrs postmortem at 4 °C): No recovery; phage recovery through ex vivo TMs ([4]; TMs stored 24 hrs postmortem at 4 °C): No recovery
TLSPKMPGGGYW [TMT-2]	more than 2 × 10^3 phage particles	highest rates of transport	
THPSTKVPGTPA [BPT-3]	more than 2 × 10^3 phage particles	highest rates of transport	
SDDSRPIAQFAI [TMT-5]		highest rates of transport	
DVGAGRWFSDNG [TMT-4]	more than 2 × 10^3 phage particles	highest rates of transport	
TFNPPPPQMPST [BPT-4]	more than 2 × 10^3 phage particles	highest rates of transport	

— publication PMC4780071, “Discovery of a Biological Mechanism of Active Transport through the Tympanic Membrane to the Middle Ear” (Scientific Reports, 2016)
